Like-named read-outs stand apart in the source and are kept apart here.
Experiments:
Myzus persicae [1] = assay: Myzus persicae - spray test; assay type: in vivo; conditions: 500 g/ha, Chinese cabbage leaf discs, after 5 days; for pest or weed control at 500 g/ha: Myzus persicae, foliar, 120 h, read-out: efficacy (aphids killed)
Protocol: Myzus persicae—Spray Test
(§1) To produce a suitable active ingredient formulation, 1 part by weight of active ingredient is dissolved with the specified parts by weight of solvent and made up to the desired concentration with water containing an emulsifier concentration of 1000 ppm. To produce further test concentrations, the formulation is diluted with emulsifier-containing water.
(§2) Discs of Chinese cabbage leaves (Brassica pekinensis) infested by all stages of the green peach aphid (Myzus persicae) are sprayed with an active ingredient formulation of the desired concentration.
(§3) After 5 days, the efficacy in % is determined. 100% means that all the aphids have been killed; 0% means that no aphids have been killed.

Tetranychus urticae = Tetranychus urticae - spray test, OP-resistant; assay type: in vivo; conditions: 500 g/ha, bean leaf discs, after 6 days
Protocol: Tetranychus urticae—Spray Test, OP-Resistant
as §1
Discs of bean leaves (Phaseolus vulgaris) infested with all stages of the greenhouse red spider mite (Tetranychus urticae) are sprayed with an active ingredient formulation of the desired concentration.
After 6 days, the efficacy in % is determined. 100% means that all the spider mites have been killed; 0% means that no spider mites have been killed.

Myzus persicae [2] = assay: Myzus persicae - oral test; assay type: in vivo; conditions: 4 ppm, oral, after 5 days; for pest or weed control at 4 ppm: Myzus persicae, 120 h, read-out: efficacy (aphids killed)
Protocol: (§4) To produce a suitable active ingredient formulation, 1 part by weight of active ingredient is dissolved with the specified parts by weight of solvent and made up to the desired concentration with water.
(§5) 50 μl of the active ingredient formulation are transferred into microtitre plates and made up to a final volume of 200 μl with 150 μl of IPL41 insect medium (33%+15% sugar). Subsequently, the plates are sealed with parafilm, which a mixed population of green peach aphids (Myzus persicae) within a second microtitre plate is able to puncture and imbibe the solution.
as §3

[3] = log P by HPLC on reversed-phase (C18) columns, OECD Guideline 117; assay type: physicochemical; conditions: for chromatographic logP: reversed-phase (C18) HPLC column
Boophilus microplus = Boophilus microplus - injection test; assay type: in vivo; conditions: 20 μg/animal, injection into engorged adult female cattle ticks, after 7 days
Protocol: Boophilus microplus—Injection Test
Solvent: Dimethyl Sulphoxide
To produce a suitable active ingredient formulation, 10 mg of active ingredient are mixed with 0.5 ml of solvent and the concentrate is diluted to the desired concentration with solvent.
1 μl of the active ingredient solution is injected into the abdomen of 5 engorged adult female cattle ticks (Boophilus microplus). The animals are transferred into dishes and kept in a climate-controlled room.
Efficacy is assessed after 7 days by laying of fertile eggs. Eggs which are not visibly fertile are stored in a climate-controlled cabinet until the larvae hatch after about 42 days. An efficacy of 100% means that none of the ticks has laid any fertile eggs; 0% means that all the eggs are fertile.

Myzus persicae [4] = assay: Myzus persicae - spray test (MYZUPE), comparison with prior art; assay type: in vivo; conditions: Myzus persicae, 120 h, 5 dat, read-out: % efficacy; for Emax at 4 g/ha: 4 g/ha (g of ai/ha); for Emax at 20 g/ha: 20 g/ha (g of ai/ha); for Emax at 100 g/ha: 100 g/ha (g of ai/ha)
Protocol: Myzus persicae—Spray Test (MYZUPE)
as §1, §2
(§6) After the desired period of time, the efficacy in % is determined. 100% means that all the aphids have been killed; 0% means that no aphids have been killed.

Myzus persicae [5] = assay: Myzus persicae - spray test (MYZUPE S), bell pepper plants; assay type: in vivo; conditions: Myzus persicae, 144 h, 6 dat, read-out: % efficacy
Protocol: Myzus persicae—Spray Test (MYZUPE S)
(§7) To produce a suitable active ingredient formulation, 1 part by weight of active ingredient is dissolved with the specified parts by weight of solvent and made up to the desired concentration with water containing an emulsifier concentration of 1000 ppm. To produce further test concentrations, the formulation is diluted with emulsifier-containing water. If the addition of ammonium salts or/and penetrants is required, these are each added in a concentration of 1000 ppm to the formulation solution.
Bell pepper plants (Capsicum annuum) severely infested with the green peach aphid (Myzus persicae) are treated by spraying with the active ingredient formulation in the desired concentration.
After the desired time, the kill in % is determined. 100% means that all the animals have been killed; 0% means that no animals have been killed.

Myzus persicae [6] = assay: Myzus persicae - drench test (MYZUPE D), savoy cabbage; assay type: in vivo; conditions: Myzus persicae, soil, 240 h, 10 dat, read-out: % efficacy
Protocol: Myzus persicae—Drench Test (MYZUPE D)
To produce a suitable active ingredient formulation, 1 part by weight of active ingredient is mixed with the specified amounts of solvent and emulsifier, and the concentrate is diluted with water to the desired concentration, it being necessary to include the volume of soil which is drenched in the calculation. It should be ensured that a concentration of 40 ppm of emulsifier in the soil is not exceeded. To produce further test concentrations, water is used for dilution.
Savoy cabbage (Brassica oleracea) in pots with soil and infested by all stages of the green peach aphid (Myzus persicae) is watered with an active ingredient formulation of the desired concentration.
as §6

Aphis gossypii = Aphis gossypii - spray test (APHIGO S), cotton plants; assay type: in vivo; conditions: 144 h, 6 dat, read-out: % efficacy
Protocol: Aphis gossypii—Spray Test (APHIGO S)
as §7
Cotton plants (Gossypium hirsutum) heavily infested by the cotton aphid (Aphis gossypii) are sprayed with an active ingredient formulation of the desired concentration.
After the desired time, the kill in % is determined. 100% means that all the aphids have been killed; 0% means that no aphids have been killed.

Myzus persicae [7] = assay: Myzus persicae - oral test (MYZUPE O), comparison with prior art; assay type: in vivo; conditions: Myzus persicae, po, 120 h, 5 dat, read-out: % efficacy
Protocol: Myzus persicae—Oral Test (MYZUPE O)
as §4, §5, §6

[8] = HPLC RP C18, acidic range pH 2.7, 0.1% formic acid/acetonitrile, read-out: logP[a]
[9] = HPLC RP C18, neutral range pH 7.8, ammonium hydrogencarbonate/acetonitrile, read-out: logP[n]

| SMILES | chromatographic logP [3, 8] | chromatographic logP [3, 9] | efficacy (laying of fertile eggs) (Boophilus microplus) [%] | Emax at 4 g/ha (Myzus persicae [4]) [%] | Emax at 20 g/ha (Myzus persicae [4]) [%] | Emax at 100 g/ha (Myzus persicae [4]) [%] | Emax at 500 g/ha (Myzus persicae [4]) [%] | Emax at 0.16 ppm (Myzus persicae [5]) [%] | Emax at 0.8 ppm (Myzus persicae [5]) [%] | pest or weed control at 500 g/ha (Myzus persicae [1]) [%] | Emax at 0.16 ppm (Myzus persicae [6]) [%] | Emax at 0.8 ppm (Myzus persicae [6]) [%] | pest or weed control at 4 ppm (Myzus persicae [2]) [%] | Emax at 0.16 ppm (Aphis gossypii) [%] | Emax at 0.8 ppm (Aphis gossypii) [%] | Emax at 0.8 ppm (Myzus persicae [7]) [%] | Emax at 4 ppm (Myzus persicae [7]) [%] | further results |
| --- | --- | --- | --- | --- | --- | --- | --- | --- | --- | --- | --- | --- | --- | --- | --- | --- | --- | --- |
| CN(C(=O)c1cnc(C2CC(c3ccc([N+](=O)[O-])cc3)=NO2)n1C)c1cccnc1 (stereo not shown) [Example I-1-24] |  |  |  |  |  |  |  |  |  |  |  |  |  |  |  |  |  | efficacy (aphids killed) (Myzus persicae [1]): 90%; efficacy (spider mites killed) (Tetranychus urticae): 100%; efficacy (aphids killed) (Myzus persicae [2]): 100%; logP[a] ([3]; pH 2.7): 1.64; logP[n] ([3]; pH 7.8): 1.84 |
| CN(C(=O)c1cnc(C2CC(c3ccncc3)=NO2)n1C)c1cccnc1 (stereo not shown) [Example I-1-28] |  |  | 80 |  |  |  |  |  |  |  |  |  |  |  |  |  |  | efficacy (aphids killed) (Myzus persicae [1]): 90%; efficacy (aphids killed) (Myzus persicae [2]): 100%; logP[a] ([3]; HPLC RP C18, acidic range pH 2.7, 0.1% formic acid/acetonitrile): 0.54; logP[n] ([3]; HPLC RP C18, neutral range pH 7.8, ammonium hydrogencarbonate/acetonitrile): 1.11 |
| CN(C(=O)c1cnc(C2CC(C3CC3)=NO2)n1C)c1cccnc1 (stereo not shown) [Example I-1-4] | 0.85 | 1.15 |  | 70 | 100 | 90 | 90 | 98 | 100 | 90 | 95 | 100 | 100 | 90 | 100 | 100 | 100 |  |
| CC1=NOC(c2ncc(C(=O)N(C)c3cccnc3)n2C)C1 (stereo not shown) [Example I-1-1] | 0.27 | 0.76 |  | 70 | 70 | 70 | 100 | 100 | 95 | 100 | 100 | 100 | 100 | 100 | 100 | 100 | 100 |  |
| CN(C(=O)c1cnc(C2CC=NO2)n1C)c1cccnc1 (stereo not shown) [Example I-1-30] | 0.1 | 0.57 |  |  | 70 | 70 | 90 | 95 | 100 | 90 | 95 | 95 | 90 |  | 80 | 100 | 90 |  |
| CC(C)C1=NOC(c2ncc(C(=O)N(C)c3cccnc3)n2C)C1 (stereo not shown) [Example I-1-3] | 1.08 | 1.34 |  |  | 70 | 90 | 100 | 99 | 100 | 100 | 95 | 100 | 100 | 70 | 100 | 100 | 100 |  |

Now from value to compound, other results behind:

| chromatographic logP [3, 8] | chromatographic logP [3, 9] | SMILES | efficacy (laying of fertile eggs) (Boophilus microplus) [%] | Emax at 4 g/ha (Myzus persicae [4]) [%] | Emax at 20 g/ha (Myzus persicae [4]) [%] | Emax at 100 g/ha (Myzus persicae [4]) [%] | Emax at 500 g/ha (Myzus persicae [4]) [%] | Emax at 0.16 ppm (Myzus persicae [5]) [%] | Emax at 0.8 ppm (Myzus persicae [5]) [%] | pest or weed control at 500 g/ha (Myzus persicae [1]) [%] | Emax at 0.16 ppm (Myzus persicae [6]) [%] | Emax at 0.8 ppm (Myzus persicae [6]) [%] | pest or weed control at 4 ppm (Myzus persicae [2]) [%] | Emax at 0.16 ppm (Aphis gossypii) [%] | Emax at 0.8 ppm (Aphis gossypii) [%] | Emax at 0.8 ppm (Myzus persicae [7]) [%] | Emax at 4 ppm (Myzus persicae [7]) [%] | further results |
| --- | --- | --- | --- | --- | --- | --- | --- | --- | --- | --- | --- | --- | --- | --- | --- | --- | --- | --- |
| 1.84 | 1.97 | CN(C(=O)c1cnc(C2CC(c3ccc(C(F)(F)F)cn3)=NO2)n1C)c1cccnc1 (stereo not shown) [Example I-1-36] |  | 100 | 90 | 90 | 100 | 90 | 99 | 100 | 70 | 80 | 100 |  | 97 | 100 | 100 |  |
| 1.45 | 1.72 | CN(C(=O)c1cnc(C2CC(c3ccccc3)=NO2)n1C)c1cccnc1 (stereo not shown) [Example I-1-7] | 80 |  |  | 90 | 90 | 95 | 100 | 90 | 80 | 90 | 100 | 50 | 100 | 100 | 100 |  |
| 1.39 | 1.63 | CN(C(=O)c1cnc(C2CC(c3cccc(C#N)c3)=NO2)n1C)c1cccnc1 (stereo not shown) [Example I-1-19, 2-[3-(3-Cyanophenyl)-4,5-dihydro-1,2-oxazol-5-yl]-N,1-dimethyl-N-(pyridin-3-yl)-1H-imidazole-5-carboxamide] | 95 |  |  |  |  |  |  | 100 |  |  | 100 |  |  |  |  |  |

Source: patent publication US10660333B2, “Substituted 2-heterocyclylimidazolylcarboxamides as pesticides” (BAYER CROPSCIENCE AKTIENGESELLSCHAFT, priority 2016, dated 2020)
